For data set [1] the following is noted: human skeletal muscle; cited from earlier work.
The nature of data set [2]: Cachectic CHF patients treated with Losartan: clinical status, body composition, strength, treadmill. The data set is classed as in vivo, human. On the procedure: Patient 1 had cachexia due to chronic heart failure (CHF) (person, weight 50.0 kg, height 178 cm, previous weight loss 15.3 kg in 3 years=chronic weight loss). Patient 2 had CHF and a muscle myopathy suffering from idiopathic cachexia (person, weight 62 kg, height 180 cm, previous weight loss 11 kg in year=recent weight loss). Each was treated with Losartan (50 mg once daily). Clinical status and parameters of body composition, strength and treadmill exercise capacity were studies, at baseline and during follow-up. Both patients had evidence of CHF with impaired exercise capacity and impaired left ventricular function (LVEF<40%).
Bioelectrical impedance analysis (patient 1 and 2) was performed in the erect position using a body fat analyser (TANITA TBF-305, Tanita Corporation, Illinois, USA). Lean and fat mass were automatically analysed based on equations supplied and programmed into the machine by the manufacturer. These equations are based upon a comparison with measurements in a health population.
Dual energy X-ray absorptiometry (DEXA) (patient 1): Whole body DEXA-scans were performed using a Lunar model DPXIQ total body scanner (Lunar Radiation Company, Madison, Wisc., USA, Lunar system software version 4.3c). The subject was at each time point scanned rectilinearly from head to toe. A scan takes less than 20 min. The mean radiation dose per scan is reported to be about 0.75 μSv (53), about 1/50th of a normal chest X-ray. The DEXA method can be used to obtain from body density analyses values of fat tissue mass, lean tissue mass. The technical details of DEXA, performance and segment demarcation have been described (54,55). The error of lean tissue measurements is […] and of fat tissue measurements <5% (56).
Treadmill exercise test (Patients 1 and 2): The patients underwent symptom limited treadmill exercise testing. A standard Bruce protocol with the addition of a “stage 0” consisting of 3 min at a speed of 1 mile per hour with a 5% gradient was used. The patients breathed through a one-way valve connected to a respiratory mass spectrometer (Amis 2000, Odense, Denmark) and minute ventilation, oxygen consumption and carbon dioxide production were calculated on line every 10 seconds using a standard inert gas dilution technique. Patients were encouraged to exercise to exhaustion. Exercise time and oxygen consumption at peak exercise adjusted for total body weight (peak V02 in ml/kg/min) were measured as an index of the exercise capacity.
Assessment of quadriceps muscle strength (Patients 1 and 2): The subjects were seated in a rigid frame, with the legs hanging freely. An inelastic strap attached the ankle to a pressure transducer. The recording (Multitrace 2, §, Jersey, Channel Islands) from the pressure transducer was used to assess strength and to provide visual feedback to the subject. […] The best of three voluntary contractions on each leg, with a rest period of at least one minute in-between, was taken to represent the maximal voluntary quadriceps muscle strength of the right and left leg, respectively.

Data set [3] in a line: Military recruits, 12 weeks training, randomised Losartan or placebo. Type of data set: in vivo, human. The note with it: after 12 weeks training. The text has this: Ninety military recruits were studied before and after military training of 12 weeks duration. These were randomised to receive the AT1-receptor antagonist Losartan or placebo.
The subject of the next data set is renin gene expression. As to conditions: captopril administration; cited from earlier work.
Data set [4] in a line: Re-analysis of SOLVD treatment trial: cardiac cachexia and survival. The data set is classed as in vivo, human. The text has this: The SOLVD treatment study (57) was a randomized, double-blind, and placebo-controlled trial investigating the effects of enaiapril treatment in clinically stable patients with a LVEF of 35% or less and evidence of overt congestive heart failure. The precis e details of study organisation, inclusion criteria, run-in period (2 to 7 days) and stabilization period (14 to 17 days), randomisation, treatment titration and follow-up have been reported previously (57). Based also on data not otherwise available, the results have been re-analysed, restricted to subjects who participated in the SOLVD treatment trial, who had been free of edema at baseline, who had survived for at least 4 months thereafter, who had weight measurements at baseline and from at least one follow-up visit at 4 months or later.
Of the 2082 patients, 1055 patients were randomised to treatment with enalapril (2.5 to 20 mg per pay) and 1027 patients to treatment with placebo. Body weight at baseline and during follow-up were measured per protocol. Body height was not recorded.
Comparison of means between groups was carried out using an unpaired t-test. Comparison of proportions between groups was made by employing the chi-square test. […] To address the question of whether or not ACE inhibitors influence the risk of first occunence of cachexia, the cumulative incidence of cachexia in the two treatment groups was plotted, and analysed employing the log-rank statistic (59). In the analysis of first occunence of cardiac cachexia, at any given follow-up visit, absence of information on cardiac cachexia (i.e. weight not documented at this visit) is treated as censored. The effect of cardiac cachexia on survival is assessed using Cox proportional hazard analysis (58). For these analyses, cardiac cachexia is treated as a time-dependent covariate. The assessment of cardiac cachexia at 4, 8, and 12 months was used in the analysis. These are the time points in the follow-up period with relatively high proportion of complete information on cachexia status.
The primary analysis was intention-to-treat. Statistical significance is claimed at a computed p-value <0.05 (two-sided testing). Estimates of effects are provided along with their 95% confidence intervals. Results are adjusted for a priori identified prognostic factors such as age, gender, NYHA functional class, LVEF (up to or more than 25%), and treatment status (enalapril vs placebo, in the case of assessing the effect of cardiac cachexia on survival).

Data set [5] has as its system rat cardiomyocytes. Put plainly: Mitochondrial membrane potential (ΔΨm) by Rh123 flow cytometry. Type of data set: cell-based. As to conditions: 1 μM, pre-treatment for 36 hours. The source says:
(§1) It is based on observation of the potential difference (ΔΨm) across the inner mitochondrial membrane that is generated by the extrusion of protons to the outside of the mitochondrion during the transport of electrons from electron-carrying coenzymes to molecular oxygen. Part of the energy stored in ΔΨm is utilised to support the synthesis of most of the ATP derived from aerobic metabolism. Thus, ΔΨm is an indicator of the energisation state of the mitochondrion, and also of the efficiency of oxygen utilisation to generate chemical energy. To investigate whether some of the therapeutic properties of ACE inhibitors could be accounted for by an increase in ΔΨm, this parameter was examined in rat cardiomyocytes, following pre-treatment with the ACE inhibitor lisinopril.
More particularly, cardiomyocytes were isolated from new-born Sprague-Dawley rats hearts and maintained in 30 mm tissue culture dishes in the presence of DMEM supplemented with 1% foetal calf serum at 37° C. in a humidified 5% CO2 atmosphere. […]
To measure ΔΨm, the mitochondrial-specific probes rhodamine 123 (Rh123) and 5,5′,6,6′-tetrachloro-1,1′,3,3′-tetraethylbenzimidazolocarbocyanine iodide (JC-1) were used. […] Data were acquired and analysed using Lysis II software (Becton Dickinson).

Data set [6] concerns rat cardiomyocytes. Put plainly: Mitochondrial membrane potential (ΔΨm) by JC-1 flow cytometry. The data set is classed as cell-based. The note with it: 1 μM.
From the text: as §1
More particularly, cardiomyocytes were isolated from new-born Sprague-Dawley rats hearts and maintained in 30 mm tissue culture dishes in the presence of DMEM supplemented with 1% foetal calf serum at 37° C. in a humidified 5% CO2 atmosphere. For experiments, cultures were treated with 1 μM lisinopril or with an equivalent amount of vehicle for various lengths of time, before analysis of ΔΨm.
To measure ΔΨm, the mitochondrial-specific probes rhodamine 123 (Rh123) and 5,5′,6,6′-tetrachloro-1,1′,3,3′-tetraethylbenzimidazolocarbocyanine iodide (JC-1) were used. Cells were incubated for 15 min with 2.5 μM Rh123 or for 10 min with […] JC-1 (Molecular Probes) in fresh culture medium, at 37° C. and 5% CO2. […] Data were acquired and analysed using Lysis II software (Becton Dickinson).
JC-1 is a more reliable and sensitive fluorescent probe for assessing changes in ΔΨm. At low concentrations, JC-1 exists mainly in a monomeric form which is characterised by the emission of green fluorescence. […] These aggregates are characterized by the emission of red fluorescence. Thus, an increase in the red to green fluorescence ratio indicates an increase in ΔΨm. […] Thus, the ratio of red to green fluorescence (□) increased as the time of incubation with lisinopril progressed.
On the technique in general: In flow cytometry, cells or beads pass a laser one at a time.

For data set [7] the following is noted: 5 μg/kg/day, rats; cited from earlier work.
The conditions of data set [8]: 2.5 mg; cited from earlier work.
The conditions of data set [9]: low dose, humans; cited from earlier work.
The conditions of data set [10]: rat hind limb; cited from earlier work.
The mark [11] stands for this setting: 50 mg once daily, both patients.

“Also recorded” adds a separate entry of the source.

Turning to `CCCCc1nc(Cl)c(CO)n1Cc1ccc(-c2ccccc2-c2nn[nH]n2)cc1` [Losartan], in data set [1], the insulin sensitivity result is recorded as “improves insulin sensitivity”. In data set [2] (setting [11]), the “exercise capacity (exercise time, peak VO2)” value is given as “improved” and the side-effects of treatment entry is “No side-effects of treatment were observed”. The quadriceps muscle strength result in [2] (50 mg once daily, both patients, both legs) is listed as “improved”. In addition, the “improvement in NYHA symptom class” value in data set [2] (50 mg once daily, both patients, follow-up 126 and 83 days) is 1 NYHA symptom class. The compound also yielded a weight gain in [2] (patient 1, 50 mg once daily, 126 days, lean and fat tissue gain) of 4.6 kg. Further, in [2] (patient 2, 50 mg once daily, 83 days), the weight course entry is “stopping the process of weight loss”. In [3] (DD genotype), the “gain in VO2 max at anaerobic threshold” value is -1.8 ± 6.3 mL/min. Further, the “gain in VO2 max at anaerobic threshold” value in data set [3] (II genotype) is 0.3 ± 6.3 mL/min.
Turning to `C[C@H](CS)C(=O)N1CCC[C@H]1C(=O)O` [captopril], the “increase in liver renin gene expression” value in the data set with renin gene expression is reported as 3 fold.
Regarding `CCOC(=O)[C@H](CCc1ccccc1)N[C@@H](C)C(=O)N1CCC[C@H]1C(=O)O` [enalapril], the “risk of developing cardiac cachexia, RR (crude effect of treatment allocation)” value in [4] (2.5 to 20 mg per day vs placebo, CHF patients) came to 0.81. The “patients with weight loss of at least 7.5% with subsequently recorded weights equal to or higher than baseline” value in data set [4] (enalapril group) is 6 patients. Besides, the effect on survival entry in [4] (independent of age, gender, NYHA class, LVEF, p<0.01) is recorded as “significantly beneficial effect on survival; also recorded: reduced the frequency of the risk of death”. Further, the “reduction of the risk of developing cardiac cachexia” value in data set [4] (overall) worked out at 19%.
For the compound `NCCCC[C@H](N[C@@H](CCc1ccccc1)C(=O)O)C(=O)N1CCC[C@H]1C(=O)O` [lisinopril], the “increase in Rh123 fluorescence” value in the data set with rat cardiomyocytes [5] is “about 30%”. Also, in the data set on rat cardiomyocytes [6] (various lengths of time), the “green fluorescence (JC-1 monomer)” value was “corresponding decrease” and the “red fluorescence (JC-1 aggregates)” value is listed as “progressive increase”. The “ratio of red to green fluorescence” value in the data set on rat cardiomyocytes [6] (with time of incubation) is given as “increased”.
On to `CCOC(=O)[C@H](CCc1ccccc1)N[C@@H](C)C(=O)N1[C@H](C(=O)O)C[C@@H]2CCC[C@@H]21` [ramipril], for which the “effect on systolic blood pressure” value in data set [7] was “no effect on systolic blood pressure”. For the same compound, the “frequency of first-dose fall in blood pressure” value in data set [8] is given as “same frequency as is seen with placebo”. In data set [9], the “effect on systemic blood pressure” value was “without any recordable effect on systemic blood pressure”.
In the case of “angiotensin II (DRVYIHPF; Angiotensin-2; UniProt P01019 25-32, looked up) [ATII]”, the “O2 usage and twitch tension” value in data set [10] is reported as “increases”.

(Values after patent US8604070B2, “Use of inhibitors of the renin-angiotensin system” (FinVector Vision Therapies, Ltd., priority 1997, dated 2013).)
